Measured values published in US20240307319A1, “IONIZABLE LIPID MOLECULE, PREPARATION METHOD THEREFOR, AND APPLICATION THEREOF IN PREPARATION OF LIPID NANOPARTICLE” (IMMORNA (HANGZHOU) BIOTECHNOLOGY CO., LTD., priority 2021, published 2024).

Tested on: BHK cells
Assay: Protein in vitro expression ability of eGFP mRNA lipid nanoparticle compositions in BHK cells by flow cytometer
Format: cell-based
Settings: 24-hour co-incubation, MC3 LNP without mRNA set as 0; for Fluorescent protein expression rate (0.1 μg): 0.1 μg LNP composition with eGFP mRNA; for Fluorescent protein expression rate (0.5 μg): 0.5 μg LNP composition with eGFP mRNA
Procedure: BHK cells were from ATCC and maintained at 37° C. under 5% CO2 in Dulbecco's modified Eagle medium (HyClone) supplemented with 10% fetal bovine serum (HyClone). 0.1 μg or 0.5 μg of the lipid nanoparticle composition prepared by the ionizable lipid compound of the invention or the commercial MC3 nanoparticle composition was co-incubated with the BHK cells to deliver the mRNA nucleic acid encoding the enhanced green fluorescent protein contained therein into the BHK cells to express the corresponding protein. After 24-hour co-incubation, the cells were digested with trypsin and collected, and signal intensity of intracellular green fluorescent protein was collected using a flow cytometer. Analysis of relative protein expression rates was performed using a cell group to which the commercial MC3 nanoparticle composition not containing mRNA encoding enhanced green fluorescent protein was added as a control.
The fluorescence intensity obtained after the commercial MC3 nanoparticle composition not containing mRNA encoding enhanced green fluorescent protein was co-incubated with cells is set as the base point, with the green fluorescent protein expression rate being 0.

| SMILES | Fluorescent protein expression rate (0.1 μg) | Fluorescent protein expression rate (0.5 μg) |
| --- | --- | --- |
| CCCCC/C=C\C/C=C\CCCCCCCCC(CCCCCCCC/C=C\C/C=C\CCCCC)OC(=O)CCCN(C)C [MC3, Dlin-MC3-DMA] | 95.87% | 99.99% |
| CCCCCCCCCOC(=O)CCCCCCCOc1ccc(OCCCCCCCC(=O)OCCCCCCCCC)c(COC(=O)CCCN(C)C)c1 [Compound I] | 82.60% | 93.51% |
